Tests used:
Format in all cases: in vivo
[1] = system: (IL-6 plus IL-6sR)-induced arthritic pain in rat; experiment: IL6 Rat: dose response alleviation of (IL-6 plus IL-6sR)-induced arthritic pain (Method Example 1); details: oral dose of 10 mg/kg or greater (1, 3, 10, 30 mg/kg tested) 1 hour before 100 ng hrIL-6 + 300 ng hrIL-6sR; measured 1 hour post injection
Text: (§1) Animals were fed standard rat chow with water available ad libitum.
(§2) Each data point is the mean of three readings of 5 seconds duration.

[2] = system: (IL-6 plus IL-6sR)-induced arthritic pain in rat; experiment: IL6 Rat: time course of alleviation of (IL-6 plus IL-6sR)-induced arthritic pain (Method Example 2); details: 10 mg/kg oral 1 hour before 100 ng hrIL-6 + 300 ng hrIL-6sR; Time 1 and 3 hours post injection
Text: as §1, §2

[3] = system: rat knee joint; experiment: (IL-6)-, (IL-6sR)-, (IL-6 plus IL-6sR)- and (heat inactivated IL-6 plus IL-6sR)-induced joint pain (Demonstration Example 3); details: intra-articular in 50 μL PBS, 1 hour post injection
Experimental: (§3) It should be appreciated that in all of the below examples, unless indicated otherwise, male Wistar rats (175-200 g) were housed in solid bottom isolator cages, 2-4 rats per cage, with corncob bedding on a 12 hour:12 hour light:dark cycle. Animals were fed standard rat chow with water available ad libitum.
It should be appreciated that in all of the below examples, hind paw weight bearing differentials between the paw of the limb having the control joint (in animals administered test compound vehicle only) and the paw of the limb having the contralateral test joint (in control or inducement animals administered test compound vehicle only and in treatment animals administered test compound dissolved in test compound vehicle) were determined using an incapacitance tester, model 2KG (Linton Instrumentation, Norfolk, United Kingdom). […] Each data point is the mean of three readings of 5 seconds duration. The hind paw weight bearing differentials were expressed in grams and calculated as the [sum of (the weight in grams placed on the control limb minus the weight in grams placed on the contralateral test limb for each animal in the inducement or treatment animal group)] divided by the number of animals in the inducement or treatment animal group. […]

[4] = system: rat knee joint; experiment: (IL-6)-induced joint pain, hind paw weight bearing differential (Demonstration Example 1); details: for change in hind paw weight differential compared to the vehicle control group: male Wistar rats
Experimental: as §3
It should be appreciated that in all of the below examples, hind paw weight bearing differentials between the paw of the limb having the control joint (in animals administered test compound vehicle only) and the paw of the limb having the contralateral test joint (in control or inducement animals administered test compound vehicle only and in treatment animals administered test compound dissolved in test compound vehicle) were determined using an incapacitance tester, model 2KG (Linton Instrumentation, Norfolk, United Kingdom). The incapacitance tester has a chamber on top with an outwardly sloping front wall that supports a rat's front limbs, and two weight sensing pads, one for each hind paw, that facilitates this determination. Each data point is the mean of three readings of 5 seconds duration. The hind paw weight bearing differentials were expressed in grams and calculated as the [sum of (the weight in grams placed on the control limb minus the weight in grams placed on the contralateral test limb for each animal in the inducement or treatment animal group)] divided by the number of animals in the inducement or treatment animal group. […] All results were statistically analyzed by comparing the average results for an induction or treatment group with the average result for its control group at the same time point using analysis of covariance (“ANCOVA”) followed by the Hochberg's procedure and those with statistical significance had ρ<0.05 unless otherwise noted.
It should also be appreciated that the IL-6 and IL-6sR used as described in all of the below examples was the commercially available recombinant human IL-6 and recombinant human IL-6sR purchased from R&D Systems, Minneapolis, Minn.
It should also be appreciated that prior to injection of hrIL-6, hrIL-6sR, or hrIL-6 plus hrIL-6sR in all of the below examples, rats were anesthetized with 5% volume/volume (“v/v”) isoflurane gas until knocked down and maintained with 2% v/v isoflurane. Rats became fully conscious about 5 minutes after isoflurane administration was discontinued.
Hind-paw weight differentials between the right joint and the left joint of male Wistar rats (150 g) were determined for 30 rats with the incapacitance tester. Rats were then randomly divided into five groups of 6 rats each, a control group and four inducement groups. Rats were anesthetized with 5% v/v isoflurane gas until knocked down and maintained with 2% v/v isoflurane gas. At Time 0, each rat was injected with 50 μL of PBS into a control knee. In addition, each rat in the control group was injected with 50 μL of PBS into the contralateral test knee and each rat in each of the four inducement groups was injected with 50 μL of PBS containing 10 ng, 30 ng, 100 ng, or 300 ng, respectively, of hrIL-6. The injections were done through the patellar ligament into the knee joint space. The isoflurane gas was discontinued. At Times 1, 3, and 6 hours, pain in each rat was characterized by measuring hind paw weight bearing differentials with the incapacitance tester, and the results were statistically analyzed.

## CS(=O)(=O)c1ccc(C2=C(c3ccccc3)C(=O)OC2)cc1 [rofecoxib]
[1]
  percent inhibition of a change in hind paw weight distribution, compared to test compound vehicle alone: inhibit pain in a statistically significant manner
[2]
  change in hind paw weight distribution (pain) compared to test compound vehicle alone: reduced pain in a statistically significant manner

## hrIL-6: commercially available recombinant human IL-6 purchased from R&D Systems
[3]; 100 ng alone
  induction of pain in the joint (hind paw weight distribution): will induce pain
[4]; 10 ng intra-articular in 50 μL PBS, 1, 3, or 6 hours post injection
  change in hind paw weight differential compared to the vehicle control group: did not produce a statistically significant change
[4]; 30 ng intra-articular in 50 μL PBS, 1 and 3 hours post injection
  change in hind paw weight differential compared to the vehicle control group: statistically significant change
[4]; 30 ng intra-articular in 50 μL PBS, 6 hours post injection
  change in hind paw weight differential compared to the vehicle control group: non-significant
[4]; 100 ng intra-articular in 50 μL PBS, 1, 3, and 6 hours post injection
  change in hind paw weight differential compared to the vehicle control group: statistically significant change
[4]; 300 ng intra-articular in 50 μL PBS, 1, 3, and 6 hours post injection
  change in hind paw weight differential compared to the vehicle control group: statistically significant change
[4]; hrIL-6 only, rat knee joint
  amount that will induce pain in the joint on intra-articular injection: more than 10 ng

B1: hrIL-6sR: commercially available recombinant human IL-6sR (interleukin-6 soluble receptor) purchased from R&D Systems (protein, UniProt P08887 20-365, looked up)
extracellular domain: LAPRRCPAQEVARGVLTSLPGDSVTLTCPGVEPEDNATVHWVLRKPAAGSHPSRWAGMGRRLLLRSVQLHDSGNYSCYRAGRPAGTVHLLVDVPPEEPQLSCFRKSPLSNVVCEWGPRSTPSLTTKAVLLVRKFQNSPAEDFQEPCQYSQESQKFSCQLAVPEGDSSFYIVSMCVASSVGSKFSKTQTFQGCGILQPDPPANITVTAVARNPRWLSVTWQDPHSWNSSFYRLRFELRYRAERSKTFTTWMVKDLQHHCVIHDAWSGLRHVVQLRAQEEFGQGEWSEWSPEAMGTPWTESRSPPAENEVSTPMQALTTNKDDDNILFRDSANATSLPVQDSSSVPLP
modifications: extracellular domain
notes: commercially available recombinant human IL-6sR (interleukin-6 soluble receptor) purchased from R&D Systems
[3]; 300 ng alone
  induction of pain in the joint (hind paw weight distribution): will induce pain

From US20040241092A1, “Method for determining alleviation of pain in an animal” (priority 2003, published 2004)
